Data on 14 compounds can be found in patent publication US6583179B2, “Substituted aminoalkylamide derivatives as antagonists of follicle stimulating hormone” (Ortho-McNeil Pharmaceutical, Inc., priority 1999, dated 2003).

The target in one assay is T1, human FSH receptor (Homo sapiens, UniProt P23945).
T1 construct: expressed in transfected cells; host or cells: Chinese Hamster Ovary cells (K-1; ATCC), line rhFSHR-cLUC
T1 sequence (P23945 18-695): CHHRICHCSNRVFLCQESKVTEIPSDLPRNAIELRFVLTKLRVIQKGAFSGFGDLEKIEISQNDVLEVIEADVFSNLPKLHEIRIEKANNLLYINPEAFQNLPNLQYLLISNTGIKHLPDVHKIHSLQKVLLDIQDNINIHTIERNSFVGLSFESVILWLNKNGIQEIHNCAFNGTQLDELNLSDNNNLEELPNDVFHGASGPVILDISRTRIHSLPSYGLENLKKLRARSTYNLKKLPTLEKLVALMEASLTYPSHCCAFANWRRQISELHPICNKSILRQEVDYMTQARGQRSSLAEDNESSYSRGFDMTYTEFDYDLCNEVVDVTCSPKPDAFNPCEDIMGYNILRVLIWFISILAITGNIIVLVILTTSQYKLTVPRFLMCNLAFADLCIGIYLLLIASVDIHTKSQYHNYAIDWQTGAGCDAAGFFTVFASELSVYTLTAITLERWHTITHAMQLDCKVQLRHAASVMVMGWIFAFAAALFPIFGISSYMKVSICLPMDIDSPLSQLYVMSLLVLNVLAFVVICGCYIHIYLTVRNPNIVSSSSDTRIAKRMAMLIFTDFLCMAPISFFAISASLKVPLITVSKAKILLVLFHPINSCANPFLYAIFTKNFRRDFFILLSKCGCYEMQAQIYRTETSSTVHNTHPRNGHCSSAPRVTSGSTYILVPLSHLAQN
Nature of the assay: hFSHR CHO cAMP assay (rhFSHR-cLUC cells, FSH-stimulated cAMP, radioimmunoassay). Format: cell-based. The conditions noted are these: inhibition of cAMP produced by EC70 dose of FSH (4.85 nM); maximum concentration 50 μM. The source says: Minimum Essential Medium-Alpha (MEM-alpha), fetal bovine serum (FBS), penicillin, streptomycin, geneticin, trypsin-EDTA, Hanks' Balanced Salt Solution (no Calcium chloride, Magnesium chloride, Magnesium sulfate, or phenol red; Ca-Mg free HBSS) were purchased from Gibco BRL (Gaithersburg, Md.). The cells used for the FSH bioassay (rhFSHR-cLUC) were Chinese Hamster Ovary cells (K-1; ATCC) stably transformed with human FSH receptor (pSVK-FSHr) and a cAMP luciferase reporter gene (responsive CGα-180LUC). Follicle Stimulating Hormone (Metrodin; Fertinex) was purchased from Serono, Ltd. (Norwell, Mass.).
The rhFSHR-cLUC cell cultures were maintained in MEM-Alpha supplemented with 10% heat-inactivated FBS (HIFBS), 100 U/ml penicillin, 100 μg/mL streptomycin, and included 0.1 g/L geneticin for stable cell selection.
Forty-eight hours after the cells were plated in sterile 96-well culture plates (Corning, Corning, N.Y.) the spent media was removed and 50 μl assay media (modified growth media with 2% HIFBS) containing 2 mM IBMX (3-isobutyl-1-methyl-xanthine) was added to the cells. Compounds (25 μl) in the appropriate concentration were added followed 5 minutes later by an EC70 dose of FSH (25 μl; 160 ng/ml; 4.85 nM). After 10 minutes @ 22.5° C. (room temperature) the reaction was terminated by addition of 25 μL 0.5 N hydrochloric acid to each well. The amount of cAMP produced was measured by radioimmunoassay in a FlashPlate (DuPont, Boston, Mass.). To each flash plate 60 μL flash plate buffer was added followed by 40 μL acidified cell sample or cAMP standard, followed with the addition of 100 μl ^125l-cAMP trace. The FlashPlates were sealed, incubated overnight @ room temperature, and counted in a Packard TopCount (Packard Instrument Co., Meriden, Conn.). The cAMP radioimmunoassay results were calculated using DPM conversion and log-logit transformation of % binding (Excel program).
(§1) Test compounds were solubilized in 30% dimethyl sulfoxide (DMSO) at a concentration of 10 mM before diluting to appropriate concentrations in assay medium. The final DMSO concentration in the treated cells and in the control cells was 0.75%.
For individual experiments, a set of samples were tested including a vehicle control (assay buffer), a reference compound (hFSH) at a range of concentrations designed to elicit a minimal to maximal response, and several concentrations of test compounds together with an EC70 concentration of standard (hFSH challenge). Each compound was performed in duplicates for the primary evaluation and quadruplicates for the dose-ranging experiments. The cAMP radioimmunoassay raw data (pmol) were calculated to provide average pmol cAMP produced/ml and the percent inhibition was calculated as shown below.
% Inh=[1−(Avg.pmoltest compound+standard)/(Avg.pmolstandard)]×100
EC50 values were calculated from an analysis of the concentration-inhibition data using a linear analysis of the data transformed to a log-logit format.

The test system of the next assay is Rat Granulosa Cell. The assay is described as follows: Rat granulosa cell FSH-stimulated cAMP production. Format: cell-based. The settings on record: inhibition of cAMP produced by EC70 dose of FSH (1.4 nM), maximum concentration 50 μM. As for the experimental part: Insulin, diethylstilbesterol, androstenedione, forskolin and DMSO were purchased from Sigma (St. Louis, Mo.). Fungizone, penicillin/streptomycin, charcoal-treated heat inactivated fetal bovine serum (CT-HI-FBS) and Dulbecco's Modified Eagle Medium:Hams F12 medium containing 15 mM Hepes and L-glutamine (DMEM:F12), were purchased from GIBCO BRL (Grand Island, N.Y.).
Ovine FSH (NIADDK-oFSH-17; FSH potency=20 NIH-FSH-S1 U/mg; LH contamination=0.04 times NIH-LH-S1) was received from Ogden Bioservices Corporation, Rockville, Md. Human FSH (Fertinex), was purchased from Serono Pharmaceutical (Framingham, Mass.). Human chorionic gonadotropin (hCG) was purchased from Sigma (St Louis, Mo.).
Immature intact female rats (Wistar-derived strain; 21-23 days old) were implanted with a single pellet (Innovative Research of America, Sarasota, Fla.) containing 2.5 mg diethylstilbesterol (DES) for 3 days. On the third day, the animals were sacrificed, the ovaries were removed, and the granulosa cells were isolated essentially as described in Haynes-Johnson et al., Biol. Reprod., 61 (1), 147-153, (1999). Granulosa cells were plated at a density of 300,000 cells per ml with 0.2 ml added to each well of 96 well culture dishes (Corning, N.Y.). Cultures were incubated at 37° C. in a humidified incubator (95% air, 5% CO2) overnight (18 hours).
Androstenedione (100,000X) was prepared by dissolving the steroid in 100% ethanol, and was subsequently diluted to a final concentration of 10^−7M containing 0.1% ethanol in assay media. The assay media was serum-free, DES-free, insulin-free media, prepared by adding 5 mL pen-strep,1.5 mL fungizone and 5 μL androstenedione to 493.5 mL DMEM F-12 media.
as §1
Test plates containing the granulosa cells were preincubated for 18 hours at 37° C. with 95% air, 5% CO2, 100% humidity. The spent media was removed and 50 μl assay media (DMEM:F12) containing 2 mM IBMX (3-isobutyl-1-methyl-xanthine) was added to the cells. Compounds (25 μl) in the appropriate concentration were added followed 5 minutes later by an EC70 dose of FSH (25 μl; 50 ng/ml; 1.4 nM). After 30 minutes @ 22.5° C. (room temperature) the reaction was terminated by addition of 25 μL 0.5 N hydrochloric acid to each well. The amount of cAMP produced was measured by radioimmunoassay in a FlashPlate (DuPont, Boston, Mass.). To each flash plate 60 μL flash plate buffer was added followed by 40 μL acidified cell sample or cAMP standard, followed with the addition of 100 μl ^125l-cAMP trace. The FlashPlates were sealed, incubated overnight @ room temperature, and counted in a Packard TopCount (Packard Instrument Co., Meriden, Conn.). The cAMP radioimmunoassay results were calculated using DPM conversion and log-logit transformation of % binding (Excel program).
For orientation: cAMP levels reflect the balance of adenylyl cyclase and phosphodiesterase activity.

Structures are written as SMILES. pEC50: −log10 of the molar value.

With `COc1ccccc1CCN(CC(=O)NCC1CCC(CN)CC1)S(=O)(=O)c1ccc(-c2ccccc2OC)cc1` (stereo not shown) [Compound 33], the figures for the pEC50 on human FSH receptor and with Rat Granulosa Cell were 6.38 and 6.74, respectively.
Take `COc1ccccc1CCN(CC(=O)NCc1ccc(CN)cc1)S(=O)(=O)c1ccc(Cl)s1` [Compound 114]: the pEC50 on human FSH receptor is 5.01; with Rat Granulosa Cell it was 5.05.
On to `C[C@H](CN(CC(=O)NCc1ccc(CN)cc1)S(=O)(=O)c1ccc(-c2ccccc2Cl)cc1)c1ccccc1` [Compound 208], for which the pEC50 at human FSH receptor was 7.22; in the assay on Rat Granulosa Cell, 7.40.
Consider `COc1ccccc1CCN(CC(=O)NCC1CCC(CN)CC1)S(=O)(=O)c1ccc(-c2ccccc2Cl)cc1` (stereo not shown) [Compound 31], for which the results for the pEC50 on human FSH receptor and in the assay on Rat Granulosa Cell were 6.04 and 5.71, respectively.
Regarding `COc1ccccc1CCN(CC(=O)NCC1CCC(CN)CC1)S(=O)(=O)c1ccc(-c2ccccc2C)cc1` (stereo not shown) [Compound 32], the figures for the pEC50 on human FSH receptor and with Rat Granulosa Cell were 6.51 and 6.80, respectively.
For `Cc1ccccc1-c1ccc(S(=O)(=O)N(CC(=O)NCC2CCCC(CN)C2)C[C@H](C)c2ccccc2)cc1` (stereo partly shown) [Compound 384], the pEC50 on human FSH receptor was 6.57; in the assay with Rat Granulosa Cell it was 7.10.
As to `COc1cccc(-c2ccc(S(=O)(=O)N(CCc3ccccc3OC)CC(=O)NCc3ccc(CN)cc3)cc2)c1` [Compound 16], the pEC50 at human FSH receptor was 5.95; in the assay with Rat Granulosa Cell, 6.29.
On to `COc1ccccc1CCN(CC(=O)NCC1CCC(CN)CC1)S(=O)(=O)c1ccc(-c2cccc(C(F)(F)F)c2)cc1` (stereo not shown) [Compound 29], for which the results for the pEC50 on human FSH receptor and in the assay with Rat Granulosa Cell were 5.51 and 5.69, respectively.
For `COc1cccc(CN(CC(=O)NCC2CCC(CN)CC2)S(=O)(=O)c2ccc(-c3cccc(OC)c3)cc2)c1` (stereo not shown) [Compound 24], the pEC50 is 5.63 at human FSH receptor and 5.97 with Rat Granulosa Cell.
As to `COc1ccccc1CCN(CC(=O)NC1CCC(N)CC1)S(=O)(=O)c1ccc(-c2ccccc2C)cc1` (stereo not shown) [Compound 94], the pEC50 is 4.46 on human FSH receptor and 5.05 in the assay on Rat Granulosa Cell.
`C[C@@H](CN(CC(=O)NCc1ccc(CN)cc1)S(=O)(=O)c1ccc(-c2cccc(F)c2)cc1)c1ccccc1` [Compound 203]: the pEC50 on human FSH receptor is 7.10; with Rat Granulosa Cell it was 7.22.
As for `COc1ccccc1CCN(CC(=O)NCc1ccc(CN)cc1)S(=O)(=O)c1ccc(-c2ccccc2C)s1` [Compound 272], the figures for the pEC50 on human FSH receptor and in the assay on Rat Granulosa Cell were 6.26 and 6.22, respectively.
Turning to `COc1ccccc1CCN(CC(=O)NCc1ccc(CN)cc1)S(=O)(=O)c1ccc(-c2cccc(F)c2)cc1` [Compound 14], the figures for the pEC50 at human FSH receptor and with Rat Granulosa Cell were 6.13 and 5.81, respectively.
On the same counts, the results for `COc1ccccc1CN(CC(=O)NCC1CCC(CN)CC1)S(=O)(=O)c1ccc(-c2cnc(SC)nc2)s1` (stereo not shown) [Compound 73] are 5.31 and 5.84.

A word on the pEC50: it is the EC50 on a negative log10 scale, so that one unit is a factor of ten. A high value points to a low EC50.
